In ChEMBL document CHEMBL1201862, “PubChem BioAssay data set” (2004):
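Interpolation was linear, between the two tested concentrations surrounding the appropriate level; five concentrations were tested over 48 hours in 96-well plates. GI50 marks 50% less growth.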 Calls of active or inactive are those of the source. Rule as the data show it: active = GI50 up to about 1.1 µM and inactive = higher.

Columns and labels:
Assay in all cases: growth of human tumour cells (NCI), 48 h
[1] = tested on: SN12C
[2] = tested on: UACC-257
[3] = tested on: NCI-H226
[4] = tested on: HOP-92
[5] = tested on: NCI/ADR-RES
[6] = tested on: SNB-19
[7] = tested on: SF-539
[8] = tested on: MDA-MB-435
[9] = tested on: MCF7
[10] = tested on: RPMI-8226
[11] = tested on: SK-OV-3
[12] = tested on: T47D
[13] = tested on: SNB-75
[14] = tested on: NCI-H522
[15] = tested on: UACC-62
[16] = tested on: ACHN
[17] = tested on: HL-60
[18] = tested on: OVCAR-5
[19] = tested on: CAKI-1
[20] = tested on: NCI-H460

Measured: GI50

Cc1ccc2c(ccc3[nH]cc(CNc4ccc(NS(C)(=O)=O)cc4)c32)n1
inactive: [1] 27.2 µM | [2] 19.1 µM | [3] 20.3 µM | [4] 26.7 µM | [5] 81.7 µM | [6] 36.4 µM | [7] 22.9 µM | [8] 16.8 µM | [9] 19.3 µM | [10] 19.1 µM | [11] 27.7 µM | [12] 12.3 µM | [13] 18.8 µM | [14] 14.9 µM | [15] 16.1 µM | [16] 33.7 µM | [17] 27.4 µM | [18] 23.8 µM | [19] 14 µM | [20] 18.9 µM

c1cc(C[S+]2CCCC2)sc1C[S+]1CCCC1
inactive: [1] > 100 µM | [2] > 100 µM | [3] > 100 µM | [4] > 100 µM | [5] > 100 µM | [6] > 100 µM | [7] > 100 µM | [8] > 100 µM | [9] > 100 µM | [10] > 100 µM | [11] > 100 µM | [12] > 100 µM | [13] > 100 µM | [14] > 100 µM | [15] > 100 µM | [16] > 100 µM | [17] > 100 µM | [18] > 100 µM | [19] > 100 µM | [20] > 100 µM
